This note sets out measurements from patent US10125095B2, “Abscisic acid derivative” (NATIONAL UNIVERSITY CORPORATION SHIZUOKA UNIVERSITY, priority 2014, dated 2018).

Each structure is given as a SMILES string.

One assay has as its target T1, PYL3 (Arabidopsis thaliana, UniProt Q9SSM7).
T1 construct: 6xHis (N); made in house; host or cells: Escherichia coli BL21-codonplus(DE3)-RIPL (PYL); BL21(DE3)pLysS (HAB1)
T1 sequence (Q9SSM7 1-209): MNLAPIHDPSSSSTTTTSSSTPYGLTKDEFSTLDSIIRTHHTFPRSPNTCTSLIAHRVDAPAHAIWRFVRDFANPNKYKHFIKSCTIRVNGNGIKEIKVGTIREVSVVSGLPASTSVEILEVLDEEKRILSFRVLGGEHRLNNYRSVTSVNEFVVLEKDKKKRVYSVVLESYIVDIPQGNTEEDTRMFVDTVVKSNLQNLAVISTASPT
Put plainly: Protein dephosphorylation enzyme activity test, PYL3. It counts as biochemical, thale cress. The note with it: control = 100%. On the procedure: (§1) A plasmid (pGex-2T-GST-HAB1 or pET28-6×His-PYL) encoded with PYR/PYL/RCAR proteins (PYL, abscisic acid receptor) or protein dephosphorylation enzyme HAB1 of thale cress was transformed to Escherichia coli (HAB1:BL21(DE3)pLysS, PYL:BL21-codonplus(DE3)-RIPL). Isopropyl-β-thiogalactopyranoside was added to the culture broth, which had been subjected to pre-culture (30° C., 180 rpm, 15 hours) and main culture (30° C., 180 rpm, 4 hours), and the protein-expressed (16° C., 150 rpm, 18 hours) crude enzyme solution was purified using FPLC thereby preparing the recombined PYL (PYR1, PYL1-6, PYL8-10) and HAB1. β-Mercaptoethanol, a manganese chloride aqueous solution, HAB1, PYL, a solution of the sample in dimethylsulfoxide and ultrapure water were sequentially added to a 96-well plate, allowed to stand at 22° C. for 30 minutes. Subsequently p-nitrophenylphosphate, which is the artificial substrate of HAB1, was added thereto to start the reaction, and the plate was placed in a microplate reader (TECAN, Infinite™ N200 NanoQuant). The absorbance at 405 nm due to p-nitrophenol, which is the hydrolysate of p-nitrophenylphosphate, was measured 3 minutes later from the reaction initiation, and HAB1 activity was calculated by the following formula (2). Note that the fraction to which only dimethylsulfoxide was added was considered to be the control and the activity thereof was defined as 100%. […] HAB1 specific activity (%)=Absorbance when sample was added/Absorbance of control×100 (2)

In another assay the target is T2, PYL1 (Arabidopsis thaliana, UniProt Q8VZS8).
T2 construct: 6xHis (N); made in house; host or cells: Escherichia coli BL21-codonplus(DE3)-RIPL (PYL); BL21(DE3)pLysS (HAB1)
T2 sequence (Q8VZS8 1-221): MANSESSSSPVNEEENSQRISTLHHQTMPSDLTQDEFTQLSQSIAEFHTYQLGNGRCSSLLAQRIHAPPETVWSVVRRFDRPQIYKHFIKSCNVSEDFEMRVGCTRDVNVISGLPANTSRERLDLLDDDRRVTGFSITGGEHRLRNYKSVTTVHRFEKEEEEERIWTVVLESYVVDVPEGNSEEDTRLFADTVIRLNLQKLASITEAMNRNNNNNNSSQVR
Put plainly: Protein dephosphorylation enzyme activity test, PYL1. It counts as biochemical, thale cress. The note with it: control = 100%. On the procedure: as §1

The next assay addresses T3, PYL2 (Arabidopsis thaliana, UniProt O80992).
T3 construct: 6xHis (N); made in house; host or cells: Escherichia coli BL21-codonplus(DE3)-RIPL (PYL); BL21(DE3)pLysS (HAB1)
T3 sequence (O80992 1-190): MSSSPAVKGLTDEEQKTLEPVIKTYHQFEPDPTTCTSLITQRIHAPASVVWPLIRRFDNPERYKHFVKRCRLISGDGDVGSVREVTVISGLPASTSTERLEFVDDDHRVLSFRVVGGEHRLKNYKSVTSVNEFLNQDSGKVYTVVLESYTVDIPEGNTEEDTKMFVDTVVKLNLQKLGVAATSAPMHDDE
Put plainly: Protein dephosphorylation enzyme activity test, PYL2. It counts as biochemical, thale cress. Particulars: control = 100%. On the procedure:
as §1

A further assay addresses T4, recombined PYL5 (Arabidopsis thaliana, UniProt Q9FLB1).
T4 construct: 6xHis (N); made in house; host or cells: Escherichia coli BL21-codonplus(DE3)-RIPL
T4 sequence (Q9FLB1 1-203): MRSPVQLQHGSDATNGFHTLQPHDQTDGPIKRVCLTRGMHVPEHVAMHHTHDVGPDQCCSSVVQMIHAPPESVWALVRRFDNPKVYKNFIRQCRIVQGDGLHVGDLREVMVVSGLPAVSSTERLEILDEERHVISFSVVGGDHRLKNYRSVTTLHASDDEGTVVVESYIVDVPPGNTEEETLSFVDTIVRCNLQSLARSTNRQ
Put plainly: Bonding affinity measurement using an isothermal titration calorimeter. It counts as binding, thale cress. Particulars: ITC, 20° C., sodium phosphate buffer. On the procedure:
A sodium phosphate buffer solution of a recombined PYL5 was prepared in the same procedure as in Test Example 5, and put in a reaction cell of an isothermal titration calorimeter (GE Healthcare, MicroCal iTC200), and a sodium phosphate buffer solution of the compound of Example 1 was put in the syringe. Then, the calorimeter was set to 20° C. and the measurement was carded out. The same measurement as above was also carried out for the compounds of Examples 7 to 9.

Assay [1] relates to seeds of thale cress (Arabidopsis thaliana, Col-0). Nature of the assay: Thale cress seed germination test. In kind it is in vivo. On the procedure:
Seeds of thale cress (Arabidopsis thaliana, Col-0) were immersed in 500 μL of an aqueous solution of 70% ethanol for 30 minutes, subsequently in 500 μL of a 100% ethanol solution for 1 minute, washed five times in 1 mL of distilled water, then immersed in distilled water and, in a dark place, vernalized at 4° C. for 3 days. A solution of the sample in methanol was put in a 1.5 mL-microtube, and methanol was removed therefrom under reduced pressure. An aqueous solution of 0.5% agar (containing ½ MS medium inorganic salts) at 70° C. was added thereto and stirred, and subsequently the obtained mixture was placed in a 96-well plate to prepare the medium containing the sample. All samples were prepared so as to have a concentration of 3 μM of the compound in Examples 1 to 9 and Comparative Example 1. Further, when ABA is applied, the ABA concentration was adjusted to 0.3 μM. 20 to 30 vernalized seeds of thale cress were planted in each well and cultured at 22° C. under continuous light to monitor the number of seeds germinated over time. The germination rate was calculated by the following formula (1). Note that those cultured in medium prepared using methanol in the same manner were used as controls. […] Germination rate (%)=Number of seeds germinated/Number of seeds planted×100 (1)
The same test was carried out as in Test Example 1 with the concentrations of the compound of Example 1 for treatment varying from 0.3 μM to 30 μM.
Similarly, the same test was carried out with the concentrations of the compound of Example 2 for treatment varying from 0.3 μM to 30 μM.
The same test was carried out as in Test Example 2 with the concentrations of the compounds for treatment varying from 0.3 μM to 3 μM to compare the recovery effects on seed germination rate of the compound of Example 1 and the compound of Comparative Example 1.

Setting [2] is: 3 μM compound co-applied with 0.3 μM ABA.

With `CC1=CC(=O)CC(C)(C)[C@@]1(O)/C=C/C(C)=C\C(=O)O` [ABA, abscisic acid], at PYL3 (sample alone), the “HAB1 Specific activity (%) PYL3” value is 16.8%. In addition, the “HAB1 Specific activity (%) PYL1” value at PYL1 (sample alone) is reported as 18.6%. Moreover, the “HAB1 Specific activity (%) PYL2” value on PYL2 (sample alone) was 13.1%. Besides, at recombined PYL5, the Kd turned out to be 880 ± 110 nM, the ΔG was -8.1 ± 0.1 kcal/mol, the ΔH is -7.8 ± 0.1 kcal/mol and the “−TΔS” value was -0.3 kcal/mol. Besides, in assay [1] (ABA alone, 0.3 μM), the “Germination rate (%) 24 Hours later” value was determined as 0%, the “Germination rate (%) 36 Hours later” value came out at 0%, the “Germination rate (%) 48 Hours later” value is listed as 16.2% and the “Germination rate (%) 60 Hours later” value came to 32.6%.
In the case of `CC1=C[C@@H](OCC#Cc2ccccc2)CC(C)(C)[C@@]1(O)/C=C/C(C)=C\C(=O)O` [Example 1, (2Z,4E)-5-((1S,4S)-1-hydroxy-2,6,6-trimethyl-4-((3-phenylprop-2-yn-1-yl)oxy)cyclohex-2-en-1-yl)-3-methylpenta-2,4-dienoic acid], the “HAB1 Specific activity (%) PYL3” value at PYL3 (ABA + compound) worked out at 49.2%. For the same compound, at PYL3 (sample alone), the “HAB1 Specific activity (%) PYL3” value is 88.6%. Also, the “HAB1 Specific activity (%) PYL1” value on PYL1 (ABA + compound) is 55.6%. Also, the “HAB1 Specific activity (%) PYL1” value on PYL1 (sample alone) is given as 98.1%. Further, the “HAB1 Specific activity (%) PYL2” value on PYL2 (ABA + compound) was 84.8%. The “HAB1 Specific activity (%) PYL2” value at PYL2 (sample alone) was 96.6%. In addition, at recombined PYL5, the Kd stood at 70 ± 20 nM, the ΔG was -9.6 ± 0.1 kcal/mol, the ΔH was -7.9 ± 0.1 kcal/mol and the “−TΔS” value is -1.7 kcal/mol. Also, in assay [1] (setting [2]), the “Germination rate (%) 24 Hours later” value was 0%, the “Germination rate (%) 36 Hours later” value came out at 79%, the “Germination rate (%) 48 Hours later” value is listed as 100% and the “Germination rate (%) 60 Hours later” value was 100%. Further, the “Recovery of seed germination rate decreased by ABA” value in assay [1] (compound 0.3 μM to 30 μM co-applied with ABA) is listed as “seed germination rates decreased by ABA are recovered”. For the same compound, in assay [1] (compound alone, 3 μM), the “Germination rate (%) 24 Hours later” value was 0%, the “Germination rate (%) 36 Hours later” value is 86%, the “Germination rate (%) 48 Hours later” value is given as 100% and the “Germination rate (%) 60 Hours later” value worked out at 100%. The “Recovery effect on seed germination rate, comparison” value in assay [1] (compounds 0.3 μM to 3 μM, co-applied with ABA) is listed as “excels in the recovery effect on seed germination rate more than the compound of Comparative Example 1”.
For `CC1=C[C@@H](OCC#Cc2ccc(C)cc2)CC(C)(C)[C@@]1(O)/C=C/C(C)=C\C(=O)O` [Example 7], on PYL3 (ABA + compound), the “HAB1 Specific activity (%) PYL3” value worked out at 61%. In addition, on PYL3 (sample alone), the “HAB1 Specific activity (%) PYL3” value is 121%. The “HAB1 Specific activity (%) PYL1” value on PYL1 (ABA + compound) is given as 87.7%. In addition, the “HAB1 Specific activity (%) PYL1” value at PYL1 (sample alone) worked out at 136%. In addition, the “HAB1 Specific activity (%) PYL2” value on PYL2 (ABA + compound) stood at 113%. In addition, the “HAB1 Specific activity (%) PYL2” value at PYL2 (sample alone) is on record as 133%. Also, on recombined PYL5, the Kd is 70 ± 20 nM, the ΔG is -9.6 ± 0.2 kcal/mol, the ΔH was -5.5 ± 0.1 kcal/mol and the “−TΔS” value is -4.2 kcal/mol. Moreover, in assay [1] (setting [2]), the “Germination rate (%) 24 Hours later” value is 0%, the “Germination rate (%) 36 Hours later” value is listed as 76%, the “Germination rate (%) 48 Hours later” value stood at 100% and the “Germination rate (%) 60 Hours later” value is 100%. Also, in assay [1] (compound alone, 3 μM), the “Germination rate (%) 24 Hours later” value is reported as 0%, the “Germination rate (%) 36 Hours later” value worked out at 86%, the “Germination rate (%) 48 Hours later” value was 100% and the “Germination rate (%) 60 Hours later” value came out at 100%.
